The experiment has as its target High affinity nerve growth factor receptor (Homo sapiens, UniProt P04629). Put plainly: Evaluation of Binding Activity for Human TrkA Protein: Measurement was carried out using TrkA LanthaScreen (registered trademark) Eu Kinase Binding Assay (ThermoFisher SCIENTIFIC). To a 384 well plate (Corning), 2.5 μL of the test compound having various concentrations and diluted with Kinase buffer (ThermoFisher SCIENTIFIC) and 2.5 μL of 15 nM TrkA enzyme (ThermoFisher SCIENTIFIC) were added. Moreover, […] Eu-anti-His Tag antibody (ThermoFisher SCIENTIFIC) and 5 μL of 30 nM Kinase (registered trademark) Tracer 236 (ThermoFisher SCIENTIFIC) were added, followed by reaction at room temperature for 60 minutes. After the reaction, the fluorescence intensity of Europium (Emission wavelength 615 nm) and TR-FRET (Emission wavelength 665 nm) with an excitation wavelength of 340 nm were measured with EnVision 2100 (PerkinElmer) to calculate the fluorescence ratio as the amount of the test compound and the TrkA enzyme bonded. The inhibitory activity (IC50 value) of each test compound was calculated with the fluorescence ratio of the well to which a solvent was added instead of the test compound being 0% and the fluorescence ratio of the well without addition of the TrkA protein being 100%.

A value given as a limit tells only on which side of the number the result lay.

Chain of High affinity nerve growth factor receptor (P04629 whole entry): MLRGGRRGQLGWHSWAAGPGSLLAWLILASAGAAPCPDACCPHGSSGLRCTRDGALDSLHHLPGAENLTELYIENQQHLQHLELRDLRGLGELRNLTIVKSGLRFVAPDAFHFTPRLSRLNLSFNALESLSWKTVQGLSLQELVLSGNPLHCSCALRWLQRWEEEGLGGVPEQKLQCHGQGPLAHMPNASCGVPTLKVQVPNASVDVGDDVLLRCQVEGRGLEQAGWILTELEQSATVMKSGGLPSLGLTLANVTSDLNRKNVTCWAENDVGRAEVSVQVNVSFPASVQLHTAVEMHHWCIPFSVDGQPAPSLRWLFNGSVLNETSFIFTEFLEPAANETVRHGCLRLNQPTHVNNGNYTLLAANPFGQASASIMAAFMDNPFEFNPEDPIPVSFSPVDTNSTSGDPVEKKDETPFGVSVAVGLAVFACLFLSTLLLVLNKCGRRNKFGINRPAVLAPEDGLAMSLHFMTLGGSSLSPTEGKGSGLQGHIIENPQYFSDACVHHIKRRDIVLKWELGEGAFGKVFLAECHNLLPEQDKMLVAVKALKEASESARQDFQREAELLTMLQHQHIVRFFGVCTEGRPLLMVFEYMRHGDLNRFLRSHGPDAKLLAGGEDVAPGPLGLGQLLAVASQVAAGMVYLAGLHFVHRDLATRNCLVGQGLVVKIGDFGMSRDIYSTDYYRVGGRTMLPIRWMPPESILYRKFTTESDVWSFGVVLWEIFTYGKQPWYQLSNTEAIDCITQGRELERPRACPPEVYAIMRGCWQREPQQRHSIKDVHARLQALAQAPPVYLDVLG

As usually defined, the IC50 is the midpoint of a concentration-inhibition curve. For the compound `Cc1ncc(-c2nc(-c3ccccc3)c(NC(=O)N[C@H]3c4ccc(F)cc4C(C)(C)C[C@H]3O)cc2C)cn1`, the IC50 is under 50 nM.

As to `Cc1ncc(-c2nc(-c3ccccc3)c(NC(=O)N[C@H]3c4cc(F)ccc4C(C)(C)C[C@H]3O)cc2C)cn1`, the IC50 was under 50 nM.
